Structures can show the parent of a compound that is named as a salt. Where two headings read alike, the source gives them in different places.

Series [1] in a line: Pharmacokinetic evaluation in mice after intragastric administration. Type of series: in vivo, mouse. Particulars: po. As to the method:
400 μl of stock solution with a concentration of 10 mg/mL was accurately pipetted into a glass bottle, and 3.6 mL of mixed menstruum was added. The ratio of the menstruum in the final formulation is DMSO:mixed menstruum (v/v)=10:90. After vortexing (or sonication) and evenly distributed, 4 mL of a dosing solution with a concentration of 1 mg mL^-1 for each compound was obtained. Formulation of Isomer 2 of the compound of Example 15: Menstruum: DMSO: PEG400: ultrapure water=5:20:75 (v/v/v) 5.37 mg of test sample Isomer 2 of the compound of Example 15 was weighed into a glass bottle; 0.269 mL of DMSO was added, vortexed to completely dissolve the solid material; 1.074 mL of PEG400 was added, vortexed, and mixed; 4.028 mL of ultrapure water was added, vortexed and mixed to obtain a colorless solution with a concentration of 1 mg·mL^-1. Experimental animal: mouse, strain ICR, source: Weitong Lihua Laboratory Animal Technology Co., Ltd., age: 6-10 weeks, male. [table] The experimental animals were fed in the animal room of Suzhou Shengsu New Pharmaceutical Development Co., Ltd. The animal room was well ventilated and equipped with air conditioning. The temperature was maintained at 20-25° C. and the humidity was maintained at 40%-70%. Bright and dark lighting for 12 hours each, and the experimental animals ate and drank freely. After normal feeding for at least 5 days, mice with good physical signs were selected for this experiment after veterinary inspection. Each mouse was marked with a tag on its tail. On the day before the experiment, the mice were fasted overnight and were allowed to drink freely, and were fed 4 hours after the administration. […] After the administration, about 100 μL of blood was collected from the orbit of the mouse at each time point and placed in an EDTA-K2 anticoagulation tube. […] An LC-MS/MS analytical method for determining the concentration of compounds in mouse plasma was established and used to determine the concentration of compounds in the biological samples obtained in this experiment. The non-compartmental model in Pharsight Phoenix 7.0 was used to calculate the pharmacokinetic parameters.

The target in a further series is T1, AKT2 (Homo sapiens, UniProt P31751).
T1 construct: purchased Carna 01-102
T1 sequence (P31751 whole entry): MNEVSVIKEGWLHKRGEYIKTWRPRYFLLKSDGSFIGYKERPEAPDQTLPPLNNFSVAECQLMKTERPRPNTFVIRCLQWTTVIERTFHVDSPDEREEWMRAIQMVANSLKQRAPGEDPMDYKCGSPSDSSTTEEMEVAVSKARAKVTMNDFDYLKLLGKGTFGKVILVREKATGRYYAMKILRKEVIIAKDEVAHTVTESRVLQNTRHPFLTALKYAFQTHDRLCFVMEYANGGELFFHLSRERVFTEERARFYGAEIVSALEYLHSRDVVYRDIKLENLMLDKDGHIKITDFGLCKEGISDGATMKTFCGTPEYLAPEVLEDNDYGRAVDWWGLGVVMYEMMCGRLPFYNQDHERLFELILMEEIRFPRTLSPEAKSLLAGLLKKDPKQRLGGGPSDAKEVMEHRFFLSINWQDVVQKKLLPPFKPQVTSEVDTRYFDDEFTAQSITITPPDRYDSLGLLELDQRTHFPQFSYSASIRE
The series is described as follows: In vitro enzyme activity test (HTRF kinEASE TK), AKT2. Type of series: biochemical. As to conditions: ATP 20 μM, enzyme 0.1 ng/well, reaction 50 min. As to the method: (§1) Experimental Procedure 2.1 Preparation of Reagents
(§2) 1 mL 1× Kinase Reaction Buffer of Kinase AKT1, AKT2 and AKT3 contain 200 μL 5× Kinase Reaction Buffer, 5 μL 1 M MgCl2, 1 μL 1 M DTT and 794 μL ultrapure water.
(§3) In addition to the control wells, 4 μL of the diluted compound working solutions were added to all reaction wells.
(§4) b) 2 μL of the previously prepared TK-biotin substrate solution was added to all reaction wells.
(§5) c) 2 μL of the previously prepared enzyme solution was added to all reaction wells, except the negative wells. The volume of the negative well was filled with 2 μL of enzyme corresponding to 1× kinase reaction buffer. The plate was sealed with sealing film. After mixing, the plate was incubated at room temperature for 10 min to allow the compound and enzyme to fully combined.
(§6) d) 2 μL of ATP solution was added to all reaction wells to start the kinase reaction.
(§7) e) The test solution was prepared 5 min before the end of the kinase reaction.
(§8) f) After the kinase reaction was completed, 5 μL of diluted streptavidin-XL665 were added to all reaction wells, and immediately the diluted europium-labeled tyrosine kinase substrate antibody detection solution was added after mixing.
(§9) g) The plate was sealed and mixed well. […] The inhibition rate of each well was calculated through the fully active wells and the background signal wells, taking the average value in case of multiple wells. Meanwhile, the professional drawing analysis software PRISM 6.0 was used to fit the half maximal inhibitory concentration (IC50) of each test compound.

The target of another series is AKT1 (Homo sapiens, UniProt P31749). As to the kind of experiment: In vitro enzyme activity test (HTRF kinEASE TK), AKT1. Type of series: biochemical. As to conditions: ATP 2 μM, enzyme 0.6 ng/well, reaction 50 min. The protocol: as §1, §2, §3, §4, §5, §6, §7, §8, §9
Chain of AKT1 (P31749 whole entry): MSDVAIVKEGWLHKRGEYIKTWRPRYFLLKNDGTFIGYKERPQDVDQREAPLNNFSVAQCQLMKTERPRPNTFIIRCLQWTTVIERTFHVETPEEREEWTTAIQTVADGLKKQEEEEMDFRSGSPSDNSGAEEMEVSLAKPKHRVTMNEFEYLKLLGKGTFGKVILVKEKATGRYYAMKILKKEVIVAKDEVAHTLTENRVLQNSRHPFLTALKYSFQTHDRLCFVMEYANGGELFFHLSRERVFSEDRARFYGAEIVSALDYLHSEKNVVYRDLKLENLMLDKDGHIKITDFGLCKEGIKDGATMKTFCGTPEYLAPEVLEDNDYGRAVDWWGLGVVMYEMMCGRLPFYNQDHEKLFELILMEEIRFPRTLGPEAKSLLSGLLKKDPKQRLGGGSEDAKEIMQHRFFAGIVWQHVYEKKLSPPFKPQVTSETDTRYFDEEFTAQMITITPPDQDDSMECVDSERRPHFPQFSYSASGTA
For a further series, the target named is T2, AKT3 (Homo sapiens, UniProt Q9Y243).
T2 construct: purchased Invitrogen PV3185
T2 sequence (Q9Y243 whole entry): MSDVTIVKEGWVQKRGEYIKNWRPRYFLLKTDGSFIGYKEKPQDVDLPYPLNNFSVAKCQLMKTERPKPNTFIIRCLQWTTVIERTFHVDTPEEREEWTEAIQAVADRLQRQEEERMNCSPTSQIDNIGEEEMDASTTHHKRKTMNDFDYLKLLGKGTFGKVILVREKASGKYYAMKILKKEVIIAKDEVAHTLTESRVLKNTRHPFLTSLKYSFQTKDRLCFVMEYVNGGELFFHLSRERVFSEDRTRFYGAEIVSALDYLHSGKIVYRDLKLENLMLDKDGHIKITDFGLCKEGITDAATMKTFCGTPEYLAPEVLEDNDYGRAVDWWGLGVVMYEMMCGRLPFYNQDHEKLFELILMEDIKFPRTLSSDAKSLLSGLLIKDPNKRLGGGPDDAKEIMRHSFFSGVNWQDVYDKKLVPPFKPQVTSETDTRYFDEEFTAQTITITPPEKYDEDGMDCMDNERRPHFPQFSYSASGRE
As to the kind of experiment: In vitro enzyme activity test (HTRF kinEASE TK), AKT3. Type of series: biochemical. Particulars: enzyme 0.3 ng/well, reaction 50 min. The protocol: as §1, §2, §3, §4, §5, §6, §7, §8, §9

[2] abbreviates: male ICR mouse, 10 mg·kg−1 intragastrically, single dose, fasted, plasma.
The mark [3] stands for this setting: male ICR mouse, 10 mg·kg−1 intragastrically, single dose, fasted, plasma, read-out: AUC.
The mark [4] stands for this setting: male ICR mouse, 10 mg·kg−1 intragastrically, single dose, fasted, plasma, read-out: Cmax.
Setting [5] is: male ICR mouse, 10 mg·kg−1 intragastrically, single dose, fasted, plasma, read-out: Tmax.
[6] abbreviates: male, ICR, mouse, in vivo, 10 mg/kg.

The molecule `CC(C)NC[C@@H](C(=O)N1CCN(c2ncnc3c2[C@H](C)CC(=O)N3)[C@H]2C[C@H]21)c1ccc(Cl)cc1` (single isomer, unassigned) [Example 15 Isomer 2] gave a half-life in series [1] (setting [2]) of 3.16 h. The AUC in series [1] (setting [3]) is 2170 ng·h/mL. Also, the Cmax in series [1] (setting [4]) is 583 ng/mL. In series [1] (setting [5]), the time to peak (Tmax) was 1 h.
Regarding `CC(C)NC[C@@H](C(=O)N1C2CCC1CN(c1ncnc3c1[C@H](C(F)(F)F)CC(=O)N3)C2)c1ccc(Cl)cc1` (single isomer, unassigned) [Example 24 Isomer 2], the results for the IC50 on AKT2, at AKT1 and at AKT3 were at least 1000 nM, 116 nM and 19 nM, respectively.
For `CC(C)NC[C@@H](C(=O)N1CC2CCC(C1)N2c1ncnc2c1[C@@H](C(F)(F)F)CC(=O)N2)c1ccc(Cl)cc1` (single isomer, unassigned) [Example 25 Isomer 1], the 50% inhibitory concentration (IC50) against AKT2 was at least 1000 nM; against AKT1, 218 nM; against AKT3, 20 nM.
The corresponding values for `CC(C)NC[C@@H](C(=O)N1CC2CCC(C1)N2c1ncnc2c1[C@H](C(F)(F)F)CC(=O)N2)c1ccc(Cl)cc1` (single isomer, unassigned) [Example 25 Isomer 2] are 20 nM, 0.59 nM and 0.19 nM.
The like results for `CC(C)NC[C@@H](C(=O)N1CCN(c2ncnc3c2N(C)CC(=O)N3)[C@@H]2C[C@@H]21)c1ccc(Cl)cc1` (single isomer, unassigned) [Example 27 Isomer 2] were, in that order, at least 1000 nM, 147 nM and 7.4 nM.
As for `CC(C)NC[C@@H](C(=O)N1CCN(c2ncnc3c2[C@H](C)OC(=O)N3)[C@H]2C[C@H]21)c1ccc(Cl)cc1` (single isomer, unassigned) [Example 34 Isomer 4], the AUC in series [1] (setting [3]) was determined as 2580 ng·h/mL. Also, in series [1] (setting [4]), the Cmax was determined as 497 ng/mL. In addition, the Tmax in series [1] (setting [5]) was found to be 4 h. Moreover, the IC50 was 0.6 nM at AKT1 and 0.12 nM on AKT3.
On to `CC(C)NC[C@@H](C(=O)N1C2CCC1CN(c1ncnc3c1[C@@H]1C[C@@H]1C(=O)N3)C2)c1ccc(Cl)cc1` (single isomer, unassigned) [Example 39 Isomer 1], for which the values for the IC50 against AKT2, on AKT1 and at AKT3 were 75 nM, 13 nM and 7.6 nM, respectively.
The corresponding values for `CC(C)NC[C@@H](C(=O)N1C2CCC1CN(c1ncnc3c1[C@H]1C[C@H]1C(=O)N3)C2)c1ccc(Cl)cc1` (single isomer, unassigned) [Example 39 Isomer 2] are 756 nM, 151 nM and 43 nM.
The corresponding values for `CC(C)NCC(C(=O)N1CCN(c2ncnc3c2[C@H](C)CC(=O)N3)C[C@@H]1C)c1ccc(Cl)cc1` (stereo in doubt) [Example 9, (R)-4-((S)-4-((R)-2-(4-chlorophenyl)-3-(isopropylamino)propionyl)-3-methylpiperazin-1-yl)-5-methyl-5,8-dihydropyrido[2,3-d]pyrimidin-7(6H)-one] are 206 nM, 167 nM and 3.3 nM.
Take `CC(C)NC[C@@H](C(=O)N1CCN(c2ncnc3c2[C@H](C)CC(=O)N3)CC1)c1ccc(Cl)cc1` [Example 2 (R) Configur- ation product, (R)-4-(4-((S)-2-(4-chlorophenyl)-3-(isopropylamino)propionyl)piperazin-1-yl)-5-methyl-5,8-dihydropyrido[2,3-d]pyrimidin-7(6H)-one]: the IC50 against AKT2 worked out at 4.3 nM; against AKT1, 2.4 nM; against AKT3 it was 0.4 nM.
Molecule `CC(C)NC[C@@H](C(=O)N1C2CCC1CN(c1ncnc3c1[C@H](C)CC(=O)N3)C2)c1ccc(Cl)cc1` [Example 10, (R)-4-(8-((S)-2-(4-chlorophenyl)-3-(isopropylamino)propionyl)-3,8-diazabicyclo[3.2.1]octan-3-yl)-5-methyl-5,8-dihydropyrido[2,3-d]pyrimidin-7(6H)-one] showed a half-life in series [1] (setting [2]) of 1.67 h. The AUC in series [1] (setting [3]) is 911 ng·h/mL. Besides, in series [1] (setting [4]), the Cmax was found to be 321 ng/mL. For the same molecule, in series [1] (setting [5]), the Tmax stood at 0.5 h. For the same molecule, the results for the IC50 against AKT1 and against AKT3 were 2.8 nM and 0.21 nM, respectively.
Turning to `C[C@@H]1CC(=O)Nc2ncnc(N3CCN(C(=O)C4(c5ccc(Cl)cc5)CCNCC4)CC3)c21` [Example 18, (R)-4-(4-(4-(4-chlorophenyl)piperidin-4-carbonyl)piperazin-1-yl)-5-methyl-5,8-dihydropyrido[2,3-d]pyrimidin-7(6H)-one formate], the IC50 against AKT2 was found to be 256 nM; at AKT1 it was 590 nM; against AKT3 it was 20.1 nM.
`CC(C)NC[C@@H](C(=O)N1C2CCC1CN(c1ncnc3c1N(C)CC(=O)N3)C2)c1ccc(Cl)cc1` [Example 21, 4-(8-((S)-2-(4-chlorophenyl)-3-(isopropylamino)propionyl)-3,8-diazabicyclo[3.2.1]octan-3-yl)-5-methyl-5,8-dihydropteridine-7(6H)-one formate]: in series [1] (setting [6]), the AUC came out at 2290 ng·h/mL, the peak level (Cmax) was 681 ng/mL and the Tmax is 1 h. Further, at AKT1, the midpoint of inhibition, the IC50, lay at 1.9 nM. The midpoint of inhibition at AKT3, the IC50, lay at 0.2 nM.
Consider `CC(C)NC[C@@H](C(=O)N1CCN(c2ncnc3c2N(C)CC(=O)N3)C[C@@H]1C)c1ccc(Cl)cc1` [Example 22, 4-((S)-4-((S)-2-(4-chlorophenyl)-3-(isopropylamino)propionyl)-3-methylpiperazin-1-yl)-5-methyl-5,8-dihydropteridine-7(6H)-one], for which the IC50 against AKT2 was 334 nM; against AKT1, 39 nM; on AKT3, 0.56 nM.
The like results for `CCN1CC(=O)Nc2ncnc(N3CC4CCC(C3)N4C(=O)[C@H](CNC(C)C)c3ccc(Cl)cc3)c21` [Example 28] were, in that order, 89 nM, 2.1 nM and 0.19 nM.
The corresponding values for `CC(C)NC[C@@H](C(=O)N1C2CCC1CN(c1ncnc3c1N(CCO)CC(=O)N3)C2)c1ccc(Cl)cc1` [Example 31] are at least 1000 nM, 210 nM and 1.8 nM.
With `CC(C)NC[C@@H](C(=O)N1C2CCC1CN(c1ncnc3[nH]c(=O)c(=O)n(C)c13)C2)c1ccc(Cl)cc1` [Example 36, 4-(8-((S)-2-(4-chlorophenyl)-3-(isopropylamino)propionyl)-3,8-diazabicyclo[3.2.1]octan-3-yl)-5-methyl-5,8-dihydropteridine-6,7-dione], the results for the IC50 against AKT2, on AKT1 and at AKT3 were 800 nM, 77 nM and 22 nM, respectively.
The corresponding values for `C[C@@H]1CC(=O)Nc2ncnc(N3CC4CCC(C3)N4C(=O)[C@H](CNC3CC3)c3ccc(Cl)cc3)c21` [Example 38] are 23 nM, 2.4 nM and 0.28 nM.
`CC(C)NC[C@@H](C(=O)N1CCN(c2ncnc3c2[C@H](C)C[C@H]3O)CC1)c1ccc(Cl)cc1` [GDC-0068, reference compound]: the half-life in series [1] (setting [2]) was 2.59 h. The AUC in series [1] (setting [3]) was found to be 320 ng·h/mL. The Cmax in series [1] (setting [4]) came to 75.3 ng/mL. The Tmax in series [1] (setting [5]) was 2 h.
